Experimental data: patent publication US20210024981A1, “COMPOSITION FOR DETECTING DSRNAS, COMPRISING MEROCYANINE COMPOUND AND ISOMER THEREOF, AND METHOD FOR PROVIDING INFORMATION FOR DIAGNOSING CANCER, BY USING DSRNA EXPRESSION ANALYSIS” (KOREA ADVANCED INSTITUTE OF SCIENCE AND TECHNOLOGY, priority 2018, published 2021)
Entries after “also recorded” stand apart in the source; their conditions may differ.

What was measured:
[1] = system: dsRNA (20 bp poly GC and poly AU); assay: Binding of spiropyran (SP) or merocyanine (MC) and dsRNA, UV-Vis spectrometer; details: 12 μM solution, 20 bp poly GC and poly AU added, MC after 254 nm UV for 5 minutes
Protocol: The interaction of spiropyran (SP) or merocyanine (MC) with dsRNA was confirmed using a UV-Vis spectrometer. The spiropyran produced in Example 1 was prepared as a spiropyran solution (12 μM), and dsRNA was prepared by ordering 20 bp poly GC and poly AU from Bioneer Co., Ltd., respectively. After adding 200 μM of poly GC and poly AU to the spiropyran solution, spectral results were obtained using a UV-Vis spectrometer. The spiropyran produced in Example 1 was prepared as a spiropyran solution (12 μM), and dsRNA was prepared by ordering 20 bp poly GC and poly AU from Bioneer Co., Ltd., respectively. After irradiating 254 nm UV to the spiropyran solution for 5 minutes, poly GC and poly AU were added, respectively. Then, spectral results were obtained using a UV-Vis spectrometer.

[2] = system: poly AU and poly GC; assay: Effect of dsRNA on reversibility of SP and MC; format: physicochemical; details: 200 μM poly AU or poly GC in sodium ion buffer; UV and 420 nm light alternately, 5 cycles at 1 minute intervals
Protocol: The SP and MC in the isomer relationship can be converted reversibly to each other by irradiating UV or visible light. To confirm the effect of dsRNA on the reversibility of SP-MC, SP and 200 μM poly AU and poly GC were added to sodium ion buffer, respectively, and absorbance was measured by alternately irradiating the mixture with UV and 420 nm […] light in 5 cycles at 1 minute intervals. At this time, water was used instead of RNA as the control.

[3] = system: HCT116 colorectal cancer cells; assay: Apoptosis observed under a microscope; format: cell-based; details: 5-AZA-CdR 500 nM, day 5
[4] = system: PANC-1 pancreatic cancer cells; assay: dsRNA absorbance change rate after 5-AZA-CdR treatment; format: cell-based; details: 5-AZA-CdR 500 nM, day 7 compared to day 0
Protocol: (§1) To compare the expression level of dsRNA between cancer cells and normal cells, total RNA was extracted by treating TRIsure reagents (Bioline) to 3 types of cancer cell lines (HeLa cervical cancer cells, HCT116 colorectal cancer cells and A549 lung cancer cells) and 2 types of normal cell lines (CCD-986sk cells and RPE-1 cells), respectively. The extracted total RNA (30 μg) was treated with RNase T1 (Worthington Inc.) in a volume of 1/10, and incubated at 37° C. for 30 minutes to remove ssRNA and rRNA. Then, dsRNA was purified using a phenol extraction method. The final concentration of the purified dsRNA was adjusted to 350 μM using tertiary distilled water, to which the spiropyran solution (12 μM, dissolved in tertiary distilled water) was added. After irradiating UV to the mixture, the rate of change in absorbance at 512 nm was measured for 2 minutes. The rate of change in absorbance was calculated in comparison with the control group using tertiary distilled water instead of dsRNA.
(§2) In addition, PANC-1 pancreatic cancer cells, MCF-7 breast cancer cells, A549 lung cancer cells and A375 melanoma cells were treated with 5-AZA-CdR (500 nM), respectively, and cultured for 24 hours. The medium was replaced with fresh medium and the cells were collected on days 0, 1, 3, 5 and 7 to isolate dsRNA. The rate of change in absorbance of dsRNA in cancer cells was measured in the same manner as described in Example 1.

[5] = system: MCF-7 breast cancer cells; assay: as above; format: cell-based; details: 5-AZA-CdR 500 nM, day 7 compared to day 0
Protocol: as §1, §2

[6] = system: A549 lung cancer cells; assay: as above; format: cell-based; details: 5-AZA-CdR 500 nM, days 0-7
Protocol: as §1, §2

[7] = system: A375 melanoma cells; assay: as above; format: cell-based; details: 5-AZA-CdR 500 nM, days 0-7
Protocol: as §1, §2

[8] = system: HeLa cervical cancer cells; assay: as above; format: cell-based; details: 5-AZA-CdR 500 nM 24 hours, day 5 vs day 0
Protocol: as §1
(§3) HCT116 colorectal cancer cells and HeLa cervical cancer cells were treated with 5-AZA-CdR (500 nM), respectively, and cultured for 24 hours. The medium was replaced with fresh medium and the cells were collected on days 0, 1, 3 and 5 to isolate dsRNA. The rate of change in absorbance of dsRNA in cancer cells was measured in the same manner as described in Experimental Example 9.

[9] = system: HCT116 colorectal cancer cells; assay: as above; format: cell-based; details: 5-AZA-CdR 500 nM 24 hours, days 0, 1, 3 and 5
Protocol: as §1, §3

[10] = system: PANC-1 pancreatic cancer cells; assay: Degree of apoptosis by MTT assay; format: cell-based; details: 5-AZA-CdR 500 nM
Protocol: (§4) HCT116 colorectal cancer cells, PANC-1 pancreatic cancer cells, MCF-7 breast cancer cells, A549 lung cancer cells and A375 melanoma cells were treated with 5-AZA-CdR in the same manner as described in Experimental Example <10-1>, and the degree of apoptosis was measured by MTT assay.

[11] = system: MCF-7 breast cancer cells; assay: Degree of apoptosis by MTT assay; format: cell-based; details: 5-AZA-CdR 500 nM
Protocol: as §4

[12] = system: HCT116 colorectal cancer cells; assay: Degree of apoptosis by MTT assay; format: cell-based; details: 5-AZA-CdR 500 nM
Protocol: as §4

[13] = system: A549 lung cancer cells; assay: Degree of apoptosis by MTT assay; format: cell-based; details: 5-AZA-CdR 500 nM
Protocol: as §4

[14] = system: A375 melanoma cells; assay: Degree of apoptosis by MTT assay; format: cell-based; details: 5-AZA-CdR 500 nM
Protocol: as §4

[15] = system: HeLa cervical cancer cells; assay: Apoptosis observed under a microscope; format: cell-based; details: 5-AZA-CdR 500 nM, day 5
[16] = system: ERV (THE1B, MTL2B4, MLT1C49 and MER21C) in HCT116 colorectal cancer cells; assay: RT-PCR (qPCR) to confirm ERV expression; format: cell-based; details: 5-AZA-CdR 500 nM
Protocol: According to a recent study, 5-AZA-CdR has been reported to promote apoptosis by increasing untranslated RNA called ERV (endogenous retroviral element), the dsRNA. Thus, whether the expression of ERV ([…], MTL2B4, MLT1C49 and MER21C genes) was increased by 5-AZA-CdR treatment was investigated.
Total RNA was isolated from the HCT116 colorectal cancer cells treated with 5-AZA-CdR in the same manner as described in Experimental Example <10-1>, to which DNase I was treated, and then cDNA was synthesized using RevertAid reverse transcriptase (Thermo Fisher Scientific). Using the synthesized cDNA as a template, qPCR was performed with the primers in Table 1 below.

Compound: CC1(C)c2ccccc2N(CCC[N+](C)(C)C)C12C=Cc1cc([N+](=O)[O-])ccc1O2 (stereo not shown) [SP, 1′-(3″-trimethylammoniopropyl)-3′,3′-dimethyl-6-nitrospiro[(2H)-1-benzopyran-2,2′-indoline]iodide]
- binding to dsRNA (change in UV-Vis absorbance spectrum) [1]: did not bind to dsRNA
- binding to dsRNA (change in UV-Vis absorbance spectrum) ([1]; listed as spiropyran): not combined with dsRNA
- reversibility of SP-MC [2]: maintained independently from the presence or absence of dsRNA

Compound: Nc1ncn([C@H]2C[C@H](O)[C@@H](CO)O2)c(=O)n1 [Example 5-AZA-CdR, 5-aza-2′-deoxycytidine]
- apoptosis [3]: apoptosis induced by 5-AZA-CdR was observed
- dsRNA expression (rate of change in absorbance) [4]: slightly increased; also recorded: slight increase
- dsRNA expression (rate of change in absorbance) [5]: slightly increased; also recorded: slight increase
- dsRNA expression (rate of change in absorbance) [6]: no change; also recorded: little change
- dsRNA expression (rate of change in absorbance) [7]: no change; also recorded: little change
- rate of change in absorbance at 512 nm (dsRNA expression) [8]: almost unchanged; also recorded: almost similar to that of day 0
- rate of change in absorbance at 512 nm (dsRNA expression) [9]: increased from day 3; also recorded: gradually increased with time
- growth decreased compared to untreated control [10]: about 20%
- growth decreased compared to untreated control [11]: about 20%
- growth reduced compared to untreated control [12]: about 40%
- growth decreased compared to untreated control [13]: about 10%
- growth compared to untreated control [14]: not reduced
- apoptosis [15]: apoptosis was not observed
- expression level of MER21C, increase compared to day 0 ([16]; day 5): 100 times
- expression levels of THE1B, MTL2B4, MLT1C49 and MER21C ([16]; days 0 and 1): almost unchanged
- expression levels of THE1B, MTL2B4, MLT1C49 and MER21C ([16]; from day 3): increased; also recorded: began to increase from day 3
